# “And” between values parts separate entries of the source, which are not always exact repeats. Identical values can stand only once. Like-named read-outs stand apart in the source and are kept apart here.
# Key:
# [1] = molecular target: Variant PPO Enzyme R128A, F420M (Amaranthus PPO2) (Amaranthus tuberculatus, UniProt Q0NZW9, F420M/R128A); format: biochemical
# [2] = molecular target: Variant PPO Enzyme L397Q, F420M (Amaranthus PPO2) (Amaranthus tuberculatus, UniProt Q0NZW9, F420M/L397Q); format: biochemical
# Variant PPO Enzyme L397Q, F420M (Amaranthus PPO2), sequence (Q0NZW9 1-534 F420M/L397Q): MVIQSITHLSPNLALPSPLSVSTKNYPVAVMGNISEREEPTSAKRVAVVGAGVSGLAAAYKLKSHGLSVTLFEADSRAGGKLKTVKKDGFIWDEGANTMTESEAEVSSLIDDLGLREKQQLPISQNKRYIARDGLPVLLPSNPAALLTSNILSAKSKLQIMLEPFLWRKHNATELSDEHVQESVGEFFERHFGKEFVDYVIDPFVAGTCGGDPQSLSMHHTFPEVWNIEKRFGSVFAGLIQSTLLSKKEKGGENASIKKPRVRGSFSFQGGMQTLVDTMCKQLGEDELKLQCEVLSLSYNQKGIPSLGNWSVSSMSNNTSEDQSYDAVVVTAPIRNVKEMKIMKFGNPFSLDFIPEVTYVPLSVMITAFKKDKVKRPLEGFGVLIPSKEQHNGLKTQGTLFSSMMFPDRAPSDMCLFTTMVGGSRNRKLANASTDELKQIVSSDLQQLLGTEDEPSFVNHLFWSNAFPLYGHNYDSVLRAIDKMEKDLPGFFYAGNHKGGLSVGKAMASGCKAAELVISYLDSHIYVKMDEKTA
# [3] = molecular target: Variant PPO Enzyme R128A, F420V (Amaranthus PPO2) (Amaranthus tuberculatus, UniProt Q0NZW9, F420V/R128A); assay: biochemical; format: biochemical
# Variant PPO Enzyme R128A, F420V (Amaranthus PPO2), sequence (Q0NZW9 1-534 F420V/R128A): as the sequence (Q0NZW9 1-534 F420M/L397Q) above, with R128A, Q397L, M420V counted along it
# [4] = molecular target: Variant PPO Enzyme L397Q (Amaranthus PPO2) (Amaranthus tuberculatus, UniProt Q0NZW9, L397Q); format: biochemical
# Variant PPO Enzyme L397Q (Amaranthus PPO2), sequence (Q0NZW9 1-534 L397Q): as the sequence (Q0NZW9 1-534 F420M/L397Q) above, with M420F counted along it
# [5] = molecular target: Variant PPO Enzyme L397Q, F420V (Amaranthus PPO2) (Amaranthus tuberculatus, UniProt Q0NZW9, F420V/L397Q); format: biochemical
# Variant PPO Enzyme L397Q, F420V (Amaranthus PPO2), sequence (Q0NZW9 1-534 F420V/L397Q): as the sequence (Q0NZW9 1-534 F420M/L397Q) above, with M420V counted along it
# [6] = molecular target: Variant PPO Enzyme F420M (Amaranthus PPO2) (Amaranthus tuberculatus, UniProt Q0NZW9, F420M); assay: biochemical; format: biochemical
# Variant PPO Enzyme F420M (Amaranthus PPO2), sequence (Q0NZW9 1-534 F420M): as the sequence (Q0NZW9 1-534 F420M/L397Q) above, with Q397L counted along it
# [7] = molecular target: Variant PPO Enzyme F420V (Amaranthus PPO2) (Amaranthus tuberculatus, UniProt Q0NZW9, F420V); format: biochemical
# Variant PPO Enzyme F420V (Amaranthus PPO2), sequence (Q0NZW9 1-534 F420V): as the sequence (Q0NZW9 1-534 F420M/L397Q) above, with Q397L, M420V counted along it
# [8] = tested on: Transgenic T2 Arabidopsis plants harboring PPO inhibitor tolerance trait; assay: Lab based germination assay in 48-well plates (Table i); format: in vivo, Arabidopsis thaliana
# [9] = molecular target: Variant PPO Enzyme L397E, F420M (Amaranthus PPO2) (Amaranthus tuberculatus, UniProt Q0NZW9, F420M/L397E); format: biochemical
# Variant PPO Enzyme L397E, F420M (Amaranthus PPO2), sequence (Q0NZW9 1-534 F420M/L397E): as the sequence (Q0NZW9 1-534 F420M/L397Q) above, with Q397E counted along it
# [10] = read-out: Variant PPO Enzyme IC50
# Variant PPO Enzyme R128A, F420M (Amaranthus PPO2), sequence (Q0NZW9 1-534 F420M/R128A): as the sequence (Q0NZW9 1-534 F420M/L397Q) above, with R128A, Q397L counted along it
smiles,measurement,setting,value
"Cn1c(C(F)(F)F)cc(=O)n(-c2nc(Oc3cccnc3OCC(=O)OCC(F)F)c(Cl)cc2F)c1=O [Uracilpyridine 16, 2,2-difluoroethyl 2-[[3-[[3-chloro-5-fluoro-6-[3-methyl-2,6-dioxo-4-(trifluoromethyl)pyrimidin-1-yl]-2-pyridyl]oxy]-2-pyridyl]oxy]acetate]",IC50,[1],89 nM
"CCOC(=O)COc1ncccc1Oc1cc(-n2c(=O)cc(C(F)(F)F)n(C)c2=O)c(F)cc1Cl [Uracilpyridine 1, ethyl 2-[[3-[2-chloro-4-fluoro-5-[3-methyl-2,6-dioxo-4-(trifluoromethyl)pyrimiclin-1-yl]phenoxy]-2-pyridyl]oxy]acetate]",IC50,[2],429 nM
same,IC50,[3]; [10],162 nM and 280 nM
same,IC50,[1],61.6 nM
same,IC50,[4],2.38 nM
same,IC50,[5],2260 nM
same,IC50,[6]; [10],38.1 nM and 46.9 nM
same,IC50,[7],66.4 nM
same,Tolerance Factor,"[8]; construct AMATU_PPO2_F420M (Amaranthus tuberculatus), in comparison to wild type plants",110
same,Tolerance Factor,"[8]; construct AMATU_PPO2_L397D (Amaranthus tuberculatus), in comparison to wild type plants",50
same,Tolerance Factor,"[8]; construct AMATU_PPO2_L397D_F420V (Amaranthus tuberculatus), in comparison to wild type plants",41
same,Tolerance Factor,"[8]; construct AMATU_PPO2_R128A_F420M (Amaranthus tuberculatus), in comparison to wild type plants",50
same,Tolerance Factor,"[8]; construct AMATU_PPO2_R128A_F420V (Amaranthus tuberculatus), in comparison to wild type plants",75
same,Tolerance Factor,"[8]; construct AMATU_PPO2_WT (Amaranthus tuberculatus), growth inhibition in comparison to wild type plants",6
"CCOC(=O)COc1ncccc1Oc1nc(-n2c(=O)cc(C(F)(F)F)n(C)c2=O)c(F)cc1Cl [Uracilpyridine 2, ethyl 2-[[3-[[3-chloro-5-fluoro-6-[3-methyl-2,6-dioxo-4-(trifluoromethyl)pyrimidin-1-yl]-2-pyridyl]oxy]-2-pyridyl]oxy]acetate]",IC50,[3],149 nM
same,IC50,[1],97.4 nM
same,IC50,[6],45.7 nM
"CCOC(=O)COc1ccccc1Oc1nc(-n2c(=O)cc(C(F)(F)F)n(C)c2=O)c(F)cc1Cl [Uracilpyridine 4, ethyl 2-[2-[[3-chloro-5-fluoro-6-[3-methyl-2,6-dioxo-4-(trifluoromethyl)pyrimidin-1-yl]-2-pyridyl]oxy]phenoxy]acetate]",IC50,[1],69.4 nM
"CCOC(=O)COc1ccccc1Oc1nc(-n2c(=O)c(C)c(C(F)(F)F)n(C)c2=O)c(F)cc1Cl [Uracilpyridine 12, ethyl 2-[2-[[3-chloro-6-[3,5-dimethyl-2,6-dioxo-4-(trifluoromethyl)pyrimidin-1-yl]-5-fluoro-2-pyridyl]oxy]phenoxy]acetate]",IC50,[1],114 nM
"Cn1c(C(F)(F)F)cc(=O)n(-c2nc(Oc3ccccc3OCC(=O)NS(C)(=O)=O)c(Cl)cc2F)c1=O [Uracilpyridine 10, 2-[2-[[3-chloro-5-fluoro-6-[3-methyl-2,6-dioxo-4-(trifluoromethyl)pyrimidin-1-yl]-2-pyridyl]oxy]phenoxy]-N-methylsulfonyl-acetamide]",IC50,[1],1670 nM
same,IC50,[9],6510 nM
"CCOC(=O)COC(=O)COc1ncccc1Oc1nc(-n2c(=O)cc(C(F)(F)F)n(C)c2=O)c(F)cc1Cl [Uracilpyridine 18, (2-ethoxy-2-oxo-ethyl) 2-[[3-[[3-chloro-5-fluoro-6-[3-methyl-2,6-dioxo-4-(trifluoromethyl)pyrimidin-1-yl]-2-pyridyl]oxy]-2-pyridyl]oxy]acetate]",IC50,[1],116 nM
"COCCOC(=O)COc1ncccc1Oc1nc(-n2c(=O)cc(C(F)(F)F)n(C)c2=O)c(F)cc1Cl [Uracilpyridine 19, 2-methoxyethyl 2-[[3-[[3-chloro-5-fluoro-6-[3-methyl-2,6-dioxo-4-(trifluoromethyl)pyrimidin-1-yl]-2-pyridyl]oxy]-2-pyridyl]oxy]acetate]",IC50,[1],125 nM
"CC(C)COC(=O)COc1ncccc1Oc1nc(-n2c(=O)cc(C(F)(F)F)n(C)c2=O)c(F)cc1Cl [Uracilpyridine 17, isobutyl 2-[[3-[[3-chloro-5-fluoro-6-[3-methyl-2,6-dioxo-4-(trifluoromethyl)pyrimidin-1-yl]-2-pyridyl]oxy]-2-pyridyl]oxy]acetate]",IC50,[1],46.1 nM
"Cn1c(C(F)(F)F)cc(=O)n(-c2nc(Oc3cccnc3OCC(=O)OCC3CC3)c(Cl)cc2F)c1=O [Uracilpyridine 15, cyclopropylmethyl 2-[[3-[[3-chloro-5-fluoro-6-[3-methyl-2,6-dioxo-4-(trifluoromethyl)pyrimidin-1-yl]-2-pyridyl]oxy]-2-pyridyl]oxy]acetate]",IC50,[1],42.9 nM
"C#CCOC(=O)COc1ncccc1Oc1nc(-n2c(=O)cc(C(F)(F)F)n(C)c2=O)c(F)cc1Cl [Uracilpyridine 14, prop-2-ynyl 2-[[3-[[3-chloro-5-fluoro-6-[3-methyl-2,6-dioxo-4-(trifluoromethyl)pyrimidin-1-yl]-2-pyridyl]oxy]-2-pyridyl]oxy]acetate]",IC50,[1],158 nM
"C=CCOC(=O)COc1ncccc1Oc1nc(-n2c(=O)cc(C(F)(F)F)n(C)c2=O)c(F)cc1Cl [Uracilpyridine 13, allyl 2-[[3-[[3-chloro-5-fluoro-6-[3-methyl-2,6-dioxo-4-(trifluoromethyl)pyrimidin-1-yl]-2-pyridyl]oxy]-2-pyridyl]oxy]acetate]",IC50,[1],91.8 nM
